{"source": "patent US6534546B1", "about": "(Chugai Seiyaku Kabushiki Kaisha, priority 1994, dated 2003)", "key": {"[1]": {"test_system": "rat model of focal cerebral ischemia", "details": "Nagafuji et al. 1992; cited from earlier work"}, "[2]": {"test_system": "gerbil model of forebrain ischemia", "details": "Nagafuji et al. 1993; cited from earlier work"}, "iNOS (Type 2)": {"target": "iNOS (Type 2) (Rattus norvegicus, UniProt Q06518)", "sequence (Q06518 whole entry, looked up)": "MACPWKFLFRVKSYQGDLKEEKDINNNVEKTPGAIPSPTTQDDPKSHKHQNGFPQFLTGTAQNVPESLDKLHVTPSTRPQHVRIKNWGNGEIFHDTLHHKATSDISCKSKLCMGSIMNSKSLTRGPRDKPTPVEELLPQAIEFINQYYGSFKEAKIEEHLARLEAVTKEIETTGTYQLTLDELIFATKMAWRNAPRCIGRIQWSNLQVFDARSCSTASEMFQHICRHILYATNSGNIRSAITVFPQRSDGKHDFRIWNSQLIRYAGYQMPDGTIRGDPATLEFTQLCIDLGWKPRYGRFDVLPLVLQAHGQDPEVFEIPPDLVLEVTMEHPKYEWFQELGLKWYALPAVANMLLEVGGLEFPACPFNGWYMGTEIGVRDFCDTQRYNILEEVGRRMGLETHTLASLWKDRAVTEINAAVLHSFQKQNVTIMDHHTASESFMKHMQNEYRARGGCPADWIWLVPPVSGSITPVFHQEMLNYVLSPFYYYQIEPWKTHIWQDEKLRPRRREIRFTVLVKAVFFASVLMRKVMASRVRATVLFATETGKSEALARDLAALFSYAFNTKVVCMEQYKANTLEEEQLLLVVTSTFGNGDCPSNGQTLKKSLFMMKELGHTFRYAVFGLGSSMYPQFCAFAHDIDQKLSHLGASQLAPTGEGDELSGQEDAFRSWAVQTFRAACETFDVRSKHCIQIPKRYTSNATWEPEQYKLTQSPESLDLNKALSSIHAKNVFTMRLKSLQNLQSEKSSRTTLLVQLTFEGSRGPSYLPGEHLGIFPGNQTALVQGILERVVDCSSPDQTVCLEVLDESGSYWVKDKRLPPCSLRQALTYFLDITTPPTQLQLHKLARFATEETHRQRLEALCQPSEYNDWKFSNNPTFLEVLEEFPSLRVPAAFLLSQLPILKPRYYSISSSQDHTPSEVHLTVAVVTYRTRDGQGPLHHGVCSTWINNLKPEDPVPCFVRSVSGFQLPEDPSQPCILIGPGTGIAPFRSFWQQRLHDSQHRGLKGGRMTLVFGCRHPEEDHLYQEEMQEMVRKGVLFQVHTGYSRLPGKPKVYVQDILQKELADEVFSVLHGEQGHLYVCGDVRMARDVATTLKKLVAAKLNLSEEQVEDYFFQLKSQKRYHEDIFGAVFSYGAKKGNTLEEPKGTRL", "assay": "biochemical", "format": "biochemical", "details": "for IC50: mean of one to four independent experiments, crude enzyme, 100 nM L-[3H]arginine, without CaCl2 and calmodulin, read-out: IC50 value, iNOS (Type 2)"}, "[3]": {"test_system": "rat model of focal cerebral ischemia (temporary MCA occlusion)", "assay": "Brain infarct volume (TTC staining) after 3-h MCA occlusion and 24-h reperfusion", "format": "in vivo"}, "E-cNOS (Type 3)": {"target": "T1, E-cNOS (Type 3) (Bos taurus, UniProt P29473)", "T1 construct": "the resulting supernatant was used as the crude enzyme sample of E-cNOS; endogenous in cells; host or cells: CPAE (cow pulmonary arterial endothelium cells), 1% Triton X-100 extract, 100,000 x g supernatant", "T1 sequence (P29473 2-1205)": "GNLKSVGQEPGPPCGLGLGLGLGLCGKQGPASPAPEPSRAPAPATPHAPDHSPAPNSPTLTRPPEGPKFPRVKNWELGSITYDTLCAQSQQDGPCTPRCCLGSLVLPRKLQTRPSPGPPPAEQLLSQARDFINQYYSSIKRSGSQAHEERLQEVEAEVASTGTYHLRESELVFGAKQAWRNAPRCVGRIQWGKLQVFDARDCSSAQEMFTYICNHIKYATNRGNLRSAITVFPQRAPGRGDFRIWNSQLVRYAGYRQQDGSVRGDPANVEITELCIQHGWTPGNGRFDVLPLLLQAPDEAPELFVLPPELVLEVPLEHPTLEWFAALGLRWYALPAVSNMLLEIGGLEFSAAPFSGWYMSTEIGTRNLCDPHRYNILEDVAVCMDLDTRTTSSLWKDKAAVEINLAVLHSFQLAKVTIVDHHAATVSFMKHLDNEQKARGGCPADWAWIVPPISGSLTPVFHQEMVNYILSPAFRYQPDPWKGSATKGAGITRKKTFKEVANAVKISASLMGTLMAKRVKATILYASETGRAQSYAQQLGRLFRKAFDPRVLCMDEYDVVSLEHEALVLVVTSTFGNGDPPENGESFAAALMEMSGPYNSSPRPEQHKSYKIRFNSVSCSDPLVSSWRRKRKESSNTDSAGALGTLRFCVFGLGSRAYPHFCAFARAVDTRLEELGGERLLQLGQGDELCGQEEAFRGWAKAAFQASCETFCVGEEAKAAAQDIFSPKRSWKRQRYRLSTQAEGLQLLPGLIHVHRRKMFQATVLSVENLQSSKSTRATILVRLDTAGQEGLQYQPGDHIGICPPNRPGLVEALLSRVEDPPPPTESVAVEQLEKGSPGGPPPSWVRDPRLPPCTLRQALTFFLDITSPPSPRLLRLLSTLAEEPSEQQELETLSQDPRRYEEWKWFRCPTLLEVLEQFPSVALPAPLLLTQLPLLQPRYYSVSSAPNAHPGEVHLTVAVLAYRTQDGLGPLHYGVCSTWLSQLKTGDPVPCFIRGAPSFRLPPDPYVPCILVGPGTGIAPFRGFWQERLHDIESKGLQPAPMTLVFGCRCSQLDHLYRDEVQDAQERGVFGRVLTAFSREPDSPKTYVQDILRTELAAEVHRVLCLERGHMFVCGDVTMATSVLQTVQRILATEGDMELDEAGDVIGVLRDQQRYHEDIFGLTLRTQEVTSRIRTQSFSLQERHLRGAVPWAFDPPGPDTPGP", "assay": "biochemical", "details": "mean of one to four independent experiments; crude enzyme, 100 nM L-[3H]arginine; read-out: IC50 value, E-cNOS (Type 3)", "protocol": "The crude enzyme sample of E-cNOS was prepared by the following procedure. A cow pulmonary arterial endothielium cell (CPAE) was cultured in a MEM medium containing 20% FBS. […] A suitable amount of Ca- and Mg-free phosphate buffer (pH 7.4) was added to the precipitating cells and they were centrifuged at 1,000 rpm for 10 min. The same step was repeated to wash the cells which, upon addition of 50 mM Tris-HCl (pH 7.4) containing 1% Triton X-100 and 1 mM DTT, were left to stand in ice for 1 h. Subsequently, the mixture was homogenized for 3 min and kept in ice for 30 min with occasional stirring. Finally, the mixture was centrifuged at 100,000×g for 60 min and the resulting supernatant was used as the crude enzyme sample of E-cNOS.\nThe reaction was started by addition of L-[^3H]arginine and following incubation at 37° C. for 10 min, the reaction was terminated by addition of 2 ml of 50 mM Tris-HCl (pH 5.5) containing 1 mM EDTA and placing the mixture on ice. The reaction solution was passed through a cation-exchange resin column (Dowex AG50WX-8, Na^+ form, 3.2 ml) to separate the reaction product L-[^3H]citrulline from the unreacted residual substrate L-[^3H]arginine. The eluate was combined with another eluate resulting from the passage of a given amount of distilled water through the column and put into a minivial for recovery of L-[^3H]citrulline. Thereafter, a scintillation fluid was added and the contained radioactivity was measured with a liquid scintillation counter to determine the amount of L-[^3H]citrulline.\nThe activity of N-cNOS or E-cNOS was determined by subtracting the activity as detected in the absence of CaCl2 and calmodulin from the activity as detected in the presence of CaCl2 and calmodulin. […] The protein concentration of each crude enzyme sample was determined with a micro-assay kit of Biorad Co. Each experiment was conducted in a duplicate."}, "[4]": {"test_system": "rat model of focal cerebral ischemia (permanent MCA occlusion)", "assay": "Brain edema (brain water content, dry-wet method) after 48-h occlusion of the left middle cerebral artery", "format": "in vivo", "details": "48 hours after MCA occlusion", "method": "An experiment was conducted to evaluate the effectiveness of a compound within the scope of the invention using a rat model of focal cerebral ischemia. Such models were prepared by occluding the left middle cerebral artery (MCA) in accordance with the method already reported by the present inventors (Nagafuji et al., Neurosci. Lett. 147, 159-162, 1992; Nagafuji et al., in Brain Edema IX (Ito et al., eds.) 60, pp. 285-288, 1994, Springer-Verlag; Nagafuji et al., Neuroreport 6, 1541-1545, 1995). […]\nThe water content in the brain which was an index of brain edema formation was measured by the dry-wet method (Nagafuji et al., Neurosci. Lett. 147, 159-162, 1992) in the following manner. Forty-eight hours after the MCA occlusion, the rats were decapitated and both the right and left cerebral hemispheres were extracted from each animal within 60 seconds; the wet weight of the brain tissue of each hemisphere was measured with a chemical balance within 90 seconds. Thereafter, the hemispheres were dried in an oven at 105° C. for 3 days and their dry weights were measured. The water content in the brain was determined by the following forumula: (wet weight−dry weight)/(wet weight)×100 (%). […]"}, "[5]": {"test_system": "focal cerebral ischemia in rats", "details": "administered after 3 hours of ischemia; Zhang et al. 1995; cited from earlier work"}, "iNOS": {"target": "iNOS (Homo sapiens, UniProt P35228)", "sequence (P35228 whole entry)": "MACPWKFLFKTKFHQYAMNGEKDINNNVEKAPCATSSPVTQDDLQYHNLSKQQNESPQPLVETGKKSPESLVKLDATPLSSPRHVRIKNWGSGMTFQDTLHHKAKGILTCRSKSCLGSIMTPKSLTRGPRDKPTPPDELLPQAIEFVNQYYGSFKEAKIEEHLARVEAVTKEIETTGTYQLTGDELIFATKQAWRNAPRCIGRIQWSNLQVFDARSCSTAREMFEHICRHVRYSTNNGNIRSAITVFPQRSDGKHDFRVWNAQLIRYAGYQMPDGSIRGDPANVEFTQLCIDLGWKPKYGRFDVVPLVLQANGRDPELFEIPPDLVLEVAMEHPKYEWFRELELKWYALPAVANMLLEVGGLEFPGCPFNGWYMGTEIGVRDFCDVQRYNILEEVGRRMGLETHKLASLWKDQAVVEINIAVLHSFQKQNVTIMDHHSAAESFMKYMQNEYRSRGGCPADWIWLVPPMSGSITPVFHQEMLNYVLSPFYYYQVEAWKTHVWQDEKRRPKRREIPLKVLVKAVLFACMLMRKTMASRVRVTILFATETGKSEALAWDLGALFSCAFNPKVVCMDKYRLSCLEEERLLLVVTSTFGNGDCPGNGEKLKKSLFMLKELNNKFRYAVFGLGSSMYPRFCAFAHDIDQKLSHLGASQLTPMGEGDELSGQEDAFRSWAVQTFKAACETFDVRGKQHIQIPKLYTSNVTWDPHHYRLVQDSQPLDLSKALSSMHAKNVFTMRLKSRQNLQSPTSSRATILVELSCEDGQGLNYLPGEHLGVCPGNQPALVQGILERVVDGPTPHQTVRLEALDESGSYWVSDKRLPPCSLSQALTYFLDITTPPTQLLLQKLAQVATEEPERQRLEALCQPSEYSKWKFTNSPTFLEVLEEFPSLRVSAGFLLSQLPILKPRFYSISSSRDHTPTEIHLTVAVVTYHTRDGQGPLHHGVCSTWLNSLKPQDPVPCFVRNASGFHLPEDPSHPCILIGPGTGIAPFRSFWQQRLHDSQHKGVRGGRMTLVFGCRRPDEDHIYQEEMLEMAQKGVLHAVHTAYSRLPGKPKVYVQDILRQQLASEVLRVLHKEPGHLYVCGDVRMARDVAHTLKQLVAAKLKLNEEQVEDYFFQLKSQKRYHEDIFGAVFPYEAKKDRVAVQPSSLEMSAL", "details": "literature reports; cited from earlier work"}, "N-cNOS": {"target": "N-cNOS (Homo sapiens, UniProt P29475)", "sequence (P29475 whole entry)": "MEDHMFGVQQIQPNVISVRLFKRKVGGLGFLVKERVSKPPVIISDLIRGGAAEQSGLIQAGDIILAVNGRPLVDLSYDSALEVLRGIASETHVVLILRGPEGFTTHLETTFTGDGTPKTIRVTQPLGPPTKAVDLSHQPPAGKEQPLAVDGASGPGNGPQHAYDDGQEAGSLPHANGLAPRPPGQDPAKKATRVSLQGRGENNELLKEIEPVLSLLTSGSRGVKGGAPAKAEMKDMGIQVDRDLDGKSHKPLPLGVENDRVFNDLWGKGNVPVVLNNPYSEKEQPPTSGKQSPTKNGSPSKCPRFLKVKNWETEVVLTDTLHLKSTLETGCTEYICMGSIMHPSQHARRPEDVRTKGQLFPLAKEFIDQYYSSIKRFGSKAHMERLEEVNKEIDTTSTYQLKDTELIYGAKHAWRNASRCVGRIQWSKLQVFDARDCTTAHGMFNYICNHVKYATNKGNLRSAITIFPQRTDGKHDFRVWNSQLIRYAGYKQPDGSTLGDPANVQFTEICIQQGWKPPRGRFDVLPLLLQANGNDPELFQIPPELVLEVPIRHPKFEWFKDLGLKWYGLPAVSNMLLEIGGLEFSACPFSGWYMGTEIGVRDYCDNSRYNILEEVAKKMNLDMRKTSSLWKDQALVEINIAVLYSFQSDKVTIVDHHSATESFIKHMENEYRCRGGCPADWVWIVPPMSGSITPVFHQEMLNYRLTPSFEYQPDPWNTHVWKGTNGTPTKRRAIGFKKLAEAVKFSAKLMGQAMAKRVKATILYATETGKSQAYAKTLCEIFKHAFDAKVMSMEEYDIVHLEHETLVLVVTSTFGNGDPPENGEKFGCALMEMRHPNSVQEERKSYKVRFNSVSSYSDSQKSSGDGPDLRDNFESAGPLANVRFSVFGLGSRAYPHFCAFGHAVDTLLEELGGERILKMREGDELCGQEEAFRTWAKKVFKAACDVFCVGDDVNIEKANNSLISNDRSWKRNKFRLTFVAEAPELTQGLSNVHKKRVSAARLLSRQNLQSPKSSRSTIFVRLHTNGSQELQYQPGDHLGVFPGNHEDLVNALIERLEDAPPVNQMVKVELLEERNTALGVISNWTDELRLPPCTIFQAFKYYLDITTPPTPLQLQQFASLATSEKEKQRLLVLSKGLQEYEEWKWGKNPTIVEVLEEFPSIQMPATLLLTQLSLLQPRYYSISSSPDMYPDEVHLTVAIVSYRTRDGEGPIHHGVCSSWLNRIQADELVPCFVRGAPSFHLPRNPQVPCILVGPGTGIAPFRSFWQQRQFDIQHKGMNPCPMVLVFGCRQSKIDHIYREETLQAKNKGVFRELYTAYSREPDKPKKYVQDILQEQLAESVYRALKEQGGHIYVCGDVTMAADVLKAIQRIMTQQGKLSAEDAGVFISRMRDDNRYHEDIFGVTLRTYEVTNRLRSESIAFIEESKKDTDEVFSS", "details": "literature reports; cited from earlier work"}, "[6]": {"details": "conclusion from Tables 49, 50 and 51"}}, "note": "Where two headings read alike, the source gives them in different places."}
{"smiles": "N=C(NCCC[C@H](N)C(=O)O)N[N+](=O)[O-]", "note": "[L-NNA, N^G-nitro-L-arginine]", "values": [{"measurement": "effects against brain edema and infarction", "setting": "[1]", "value": "ameliorative effects"}, {"measurement": "effects against neuronal cell death", "setting": "[2]", "value": "ameliorative effects"}]}
{"smiles": "CCSC(=N)Nc1cccc(C(C)(C)N)c1.Cl.Cl", "note": "[Example 96, N-(1-methyl-1-(3-(S-ethylisothioureido)phenyl)ethyl)amine dihydrochloride]", "values": [{"measurement": "iNOS inhibitory potency compared with the existing NOS inhibitors (L-MIN)", "setting": "iNOS (Type 2); [6]", "value": "more potent in inhibiting iNOS than L-MIN"}, {"measurement": "selectivity for iNOS compared to E-cNOS, compared with the existing NOS inhibitors (L-NIO)", "setting": "iNOS (Type 2); [6]", "value": "more selective inhibitory effect on iNOS than L-NIO"}, {"measurement": "Ratio of IC50 values E-cNOS/iNOS", "setting": "iNOS (Type 2); index of selectivity", "value": 6.9}, {"measurement": "IC50", "setting": "iNOS (Type 2)", "value": 28.6, "unit": "nM"}, {"measurement": "infarction, dose dependence", "setting": "[3]; 3-h MCA occlusion and 24-h reperfusion, bolus 0.12-3.6 μg/kg then infusion 0.01-0.3 μg/kg/min", "value": "ameliorated in a dose-dependent manner"}, {"measurement": "decrease of infarct volume", "setting": "[3]; rat, in vivo, iv", "value": "about 79.7%"}, {"measurement": "IC50", "setting": "E-cNOS (Type 3)", "value": 198, "unit": "nM"}, {"measurement": "increase in the percentage of the water content (brain edema), dose dependence", "setting": "[4]; bolus 0.12-3.6 μg/kg then infusion 0.01-0.3 μg/kg/min", "value": "reduced in a dose-dependent manner"}, {"measurement": "percentage of the water content in the stroke hemisphere to the contralateral hemisphere", "setting": "[4]; sustained infusion 0.3 μg/kg/min following intravenous bolus 3.6 μg/kg, p<0.01, control group about 103.8%", "value": "about 102.1%"}]}
{"smiles": "COC(=O)[C@@H](N)CCCNC(=N)N[N+](=O)[O-]", "note": "[L-NAME, N^G-nitro-L-arginine methyl ester, reference compound]", "values": [{"measurement": "IC50", "setting": "E-cNOS (Type 3)", "value": 923, "unit": "nM"}, {"measurement": "infarct volume", "setting": "[5]", "value": "decreased significantly"}]}
{"smiles": "N=C(N)NN", "note": "[AG, aminoguanidine]", "values": [{"measurement": "reported selectivity for iNOS", "setting": "iNOS", "value": "selectivity for iNOS"}]}
{"smiles": "CSC(=N)NCCC[C@H](N)C(=O)O", "note": "[L-MIN, S-methyl-L-thiocitrulline, reference compound]", "values": [{"measurement": "Ratio of IC50 values E-cNOS/iNOS", "setting": "iNOS (Type 2)", "value": 0.6}, {"measurement": "iNOS inhibitory potency compared with the existing NOS inhibitors (L-MIN)", "setting": "iNOS (Type 2); [6]", "value": "the strongest iNOS inhibitory activity in the existing NOS inhibitors"}, {"measurement": "IC50", "setting": "iNOS (Type 2)", "value": 248, "unit": "nM"}, {"measurement": "IC50", "setting": "E-cNOS (Type 3)", "value": 152, "unit": "nM"}, {"measurement": "reported selectivity for N-cNOS", "setting": "N-cNOS", "value": "selectivity for N-cNOS"}]}
